Data taken from patent publication EP1566447A1, “Glimepiride- and insulin-induced glycosylphosphatidylinositol-specific phospholipase C regulation” (priority 2004, dated 2005).

Test system: bacterial, trypanosomal, serum and rat adipocyte GPI-PLC/D
Experiment: (G)PI-PLC/D of various origin, results stated collectively
Format: biochemical
Experimental: GPI-PLD (rat serum) was assayed according to "Hari et al. (1997) Biochim. Biophys. Acta 1355: 293-302" by incubation with 10 µl of human placental aP solution (100 U/ml in 10 mM Hepes/NaOH, pH 7.0, 150 mM NaCl) in 100 µl of 200 mM Tris/maleate (pH 7.0) and 1 % Nonidet P-40 for 10 min at 37°C and subsequent termination of the reaction by addition of 0.4 ml of ice-cold stop buffer (10 mM Hepes/NaOH, pH 7.0, 150 mM NaCl, 0.1 mM MgCl2 and 0.01 mM zinc acetate). GPI-PLC (T. brucei) was assayed as described in "Mensa-Wilmot et al. (1995) Methods Enzymol. 250: 641-655" by incubation with 5 µl of human placental aP solution (see above) in 50 µl of 50 mM Tris/HCl (pH 8.0), 0.25 % Nonidet P-40 and 5 mM EDTA for 30 min at 37°C and subsequent termination of the reaction by addition of 0.45 ml of stop buffer. […]
Pelleted hc/IcDIGs (10-50 µg protein) or (G)PI-PLC reaction mixtures (0.5 ml) were separated into amphiphilic and hydrophilic proteins using partitioning between TX-114-enriched and depleted phases according to "Bordier, C., (1981) J. Biol, Chem. 272: 2542-2550" by suspending in 1 ml of ice-cold TX-114 (1 %), 25 mM Tris/HCl (pH 7.4), 144 mM NaCl or mixing with 0.5 ml of ice-cold TX-114 (2 %), respectively. […] After re-extraction of the lower TX-114-enriched phase, aliquots of the pooled upper TX-114-depleted phase were measured for 5'-Nuc, aP and AChE activity or precipitated (15 % polyethylene glycol 4000) for SDS-PAGE analysis.
GPI-2350 inhibits (G)PI-PLC/D of various origin with high potency and selectivity: The effect of GPI-2350 on (purified or crude) B. cereus PI-PLC, T. brucei GPI-PLC and rat serum GPI-PLD was monitored by their incubation with partially purified solubilized GPI proteins under appropriate conditions (low or high detergent conc.) in the presence of increasing concentrations of GPI-2350. […]

CCCCCCCCCCCCP1(=O)O[C@@H]2[C@H](O)[C@@H](O)[C@H](O)[C@@H](O)[C@@H]2O1 (mixture of isomers) [GPI-2350, myo-inositol-1,2-cyclo-dodecylphosphonic acid]
blocked GPI-PLC/D by (50 µM, one range for all four enzymes, Fig. 3): 60 to 95%
reversal of half-maximal inhibition upon 10-fold dilution (bacterial and trypanosomal (G)PI-PLC, dilution with excess of fresh GPI-protein substrate): completely reversed
IC50 (bacterial, trypanosome and serum GPI-PLC and GPI-PLD, one range for all): 0.2 to 10 µM
